This assay deals with T1, human GR (glucocorticoid receptor) (Homo sapiens, UniProt P04150).
T1 construct: expressed in transfected cells; host or cells: HEK293 (293-GR lysate)
T1 sequence (P04150 1-777): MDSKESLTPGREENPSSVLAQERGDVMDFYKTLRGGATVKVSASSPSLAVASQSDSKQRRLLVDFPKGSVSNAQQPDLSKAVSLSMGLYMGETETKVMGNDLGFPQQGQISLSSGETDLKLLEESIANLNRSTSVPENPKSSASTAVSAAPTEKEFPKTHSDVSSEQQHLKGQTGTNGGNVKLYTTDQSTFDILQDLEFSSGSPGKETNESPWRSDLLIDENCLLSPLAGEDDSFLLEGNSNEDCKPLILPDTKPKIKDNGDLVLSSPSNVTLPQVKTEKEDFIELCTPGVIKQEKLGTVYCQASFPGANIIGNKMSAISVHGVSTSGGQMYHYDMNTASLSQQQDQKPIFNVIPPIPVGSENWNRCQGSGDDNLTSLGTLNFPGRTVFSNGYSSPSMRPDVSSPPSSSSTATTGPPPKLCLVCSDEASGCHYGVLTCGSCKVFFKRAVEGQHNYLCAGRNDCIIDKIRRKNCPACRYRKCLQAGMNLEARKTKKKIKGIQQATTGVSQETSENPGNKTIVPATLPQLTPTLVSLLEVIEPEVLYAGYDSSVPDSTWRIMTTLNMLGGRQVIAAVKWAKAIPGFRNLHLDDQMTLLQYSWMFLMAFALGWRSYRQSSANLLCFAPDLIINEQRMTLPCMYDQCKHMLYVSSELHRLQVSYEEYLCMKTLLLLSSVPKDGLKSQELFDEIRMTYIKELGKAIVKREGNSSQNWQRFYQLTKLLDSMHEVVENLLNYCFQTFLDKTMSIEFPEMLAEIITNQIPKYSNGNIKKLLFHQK
Briefly: Steroid nuclear hormone receptor binding assay, GR. Particulars: [3H]-dexamethasone, HEK293 lysate overexpressing human GR. As for the experimental part:
Cell lysates from human embryonic kidney HEK293 cells overexpressing human MR (mineralocorticoid receptor), GR (glucocorticoid receptor), AR (androgen receptor), or PR (progesterone receptor) are used for receptor-ligand competition binding assays to determine Ki values.
Briefly, steroid receptor competition binding assays are run in a buffer containing 20 mM HEPES buffer (pH=7.6), 0.2 mM EDTA, 75 mM NaCl, 1.5 mM MgCl2, 20% glycerol, 20 mM sodium molybdate, 0.2 mM DTT (dithiothreitol), 20 μg/mL aprotinin and 20 μg/mL leupeptin (assay buffer). Typically, steroid receptor binding assays include radio-labeled ligands, such as 0.25 nM [^3H]-aldosterone for MR binding, 0.7 nM [^3H]-dexamethasone for GR binding, 0.36 nM [^3H]-methyltrienolone for AR binding, and 0.29 nM [^3H]-methyltrienolone for PR binding, and either 20 μg 293-MR lysate, 20 μg 293-GR lysate, 22 μg 293-AR lysate, or 40 μg 293-PR lysate per well. Assays are typically run in 96-well format. Competing test compounds are added at various concentrations ranging from about 0.01 nM to 10 μM. Non-specific binding is determined in the presence of 500 nM aldosterone for MR binding, 500 nM dexamethasone for GR binding, or 500 nM methyltrienolone for AR and PR binding. […] After an incubation of 2 hours, plates are read in a Wallac Microbeta counter. […]

Structures are written as SMILES.

For orientation: Ki means the equilibrium dissociation constant of an inhibitor or competing ligand from its target. Low readings indicate higher affinity, high ones lower affinity. Consider `O=c1[nH]c2cc(/C=C3\c4ccccc4COc4cc(F)ccc43)ccc2n1[C@@H]1C[C@@H]2COCCN2C1` [Compound (I), 5-((E)-(3-fluorodibenzo[b,e]oxepin-11(6H)-ylidene)methyl)-1-((7R,8aR)-hexahydro-1H-pyrrolo[2,1-c][1,4]oxazin-7-yl)-1H-benzo[d]imidazol-2(3H)-one], for which the Ki was around 0.669 µM.

For the origin of these results see patent US8658638B2, “Mineralocorticoid receptor antagonist and methods of use” (priority 2009, dated 2014).
